# Laboratory results as given in PubChem BioAssay (NCI).
#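 How tested: cells in 96-well plates exposed to compound for 48 hours at five concentrations. Abbreviation: GI50, concentration required for 50% inhibition of growth. Definition used: TGI = concentration required for complete inhibition of growth.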
# How the values were obtained:
# Experiment in all cases: NCI anticancer screen, dose series, 48 h
# HL-60(TB) leukemia = test system: HL-60(TB) leukemia
# U251 CNS = test system: U251 CNS
# OVCAR-4 ovarian = test system: OVCAR-4 ovarian
# HOP-92 NSCLC = test system: HOP-92 NSCLC
# UACC-257 melanoma = test system: UACC-257 melanoma
# HCT-116 colon = test system: HCT-116 colon
# K-562 leukemia = test system: K-562 leukemia
# NCI-H226 lung = test system: NCI-H226 lung
# UACC-62 melanoma = test system: UACC-62 melanoma
# NCI-H460 lung = test system: NCI-H460 lung
# NCI/ADR-RES ovarian = test system: NCI/ADR-RES ovarian
Structure (SMILES),TGI (HL-60(TB) leukemia) [µM],TGI (U251 CNS) [µM],TGI (OVCAR-4 ovarian) [µM],TGI (HOP-92 NSCLC) [µM],TGI (UACC-257 melanoma) [µM],TGI (HCT-116 colon) [µM],TGI (K-562 leukemia) [µM],TGI (NCI-H226 lung) [µM],TGI (UACC-62 melanoma) [µM],TGI (NCI-H460 lung) [µM],TGI (NCI/ADR-RES ovarian) [µM],GI50 (HL-60(TB) leukemia) [µM],GI50 (U251 CNS) [µM],GI50 (NCI-H460 lung) [µM],GI50 (HOP-92 NSCLC) [µM],GI50 (UACC-257 melanoma) [µM],GI50 (K-562 leukemia) [µM],GI50 (NCI-H226 lung) [µM],GI50 (UACC-62 melanoma) [µM],GI50 (NCI/ADR-RES ovarian) [µM]
N#C[S-].[La+3].c1cnc2c(c1)ccc1cccnc12.c1cnc2c(c1)ccc1cccnc12.c1cnc2c(c1)ccc1cccnc12,2.47,11.9,16.8,18,20.2,10.2,> 100,4.63,4.8,–,–,–,–,–,–,–,–,–,–,–
CNc1ncccc1Nc1cc(=O)n2c3cccnc3n(C)c2c1,–,> 100,> 100,–,> 100,> 100,> 100,> 100,> 100,> 100,> 100,–,–,–,–,–,–,–,–,–
COc1cc2c(cc1O)c(O)cc1c3cc(OC)c(OC)cc3c[n+](C)c21,–,4.57,> 100,–,> 100,> 100,> 80.5,> 25.6,> 100,> 100,> 100,–,–,–,–,–,–,–,–,–
O=C(CSc1nnc(-c2ccccn2)s1)N/N=C/c1ccccc1,–,> 100,> 100,> 100,> 100,> 100,> 100,> 100,> 100,> 100,> 100,–,–,–,–,–,–,–,–,–
Nc1ccccc1CCN1CCN(CCCc2ccccc2)CC1,> 100,> 100,> 100,–,> 100,> 100,> 100,> 100,> 100,> 100,> 100,–,–,–,–,–,–,–,–,–
Clc1ccc(CCN(CCc2ccc(Cl)c(Cl)c2)CCN2CCCC2)cc1Cl,3.25,2.95,3.66,–,3.37,–,–,4.07,3.06,3.34,3.39,–,–,–,–,–,–,–,–,–
O=C(/C=C/c1ccc(O)c(O)c1)OCC(OC(=O)/C=C/c1ccc(O)c(O)c1)C(=O)O (centres undefined),–,> 100,> 100,> 100,> 100,> 100,> 100,> 100,> 100,> 100,> 100,–,–,–,–,–,–,–,–,–
CCCC(C)c1ccc(OCCCCCCN2CCNCC2)cc1 (centres undefined),3.54,3.07,–,6.7,4.72,–,3.97,35.8,3.71,3.39,5.37,1.75,1.57,1.65,1.54,2.05,1.51,9.26,1.95,2.22
COc1ccc(-c2c(C(C)=O)c(-c3ccccc3)n(C3OC(CO)C(O)C(O)C3O)c(=S)c2C#N)cc1 (centres undefined),> 100,> 100,> 100,–,> 100,> 100,> 100,> 100,> 100,> 100,> 100,–,–,–,–,–,–,–,–,–
O=C(NN1C(=O)C(Cl)C1c1ccc(Cl)cc1)c1c(Cl)c(Cl)c(Cl)c(Cl)c1-c1nc2ccccc2[nH]1 (centres undefined),59.6,–,–,51.4,> 100,44,> 100,65.7,33.9,46.4,> 100,–,–,–,–,–,–,–,–,–
Cc1ccc(S(=O)(=O)Nc2cccc3c(=O)[nH]cnc23)cc1,> 100,> 100,> 100,> 100,> 100,> 100,> 100,> 100,> 100,> 100,–,–,–,–,–,–,–,–,–,–
C=CC[C@]1(/C=N/O)CN(S(=O)(=O)CC[Si](C)(C)C)C[C@H]2CC=CC[C@H]21,–,32.2,34.1,–,60.6,27.3,67.5,34.4,64.9,38.5,> 100,–,–,–,–,–,–,–,–,–
C=C(CCOC)CCC1CCCCC(CN(C)C)C1=O (centres undefined),> 100,> 100,> 100,–,–,> 100,> 100,> 100,> 100,> 100,> 100,–,–,–,–,–,–,–,–,–
N#Cc1ccc(-c2nc3c(N)ncnc3o2)cc1,> 100,–,–,–,> 100,> 100,> 100,> 100,> 100,> 100,> 100,–,–,–,–,–,–,–,–,–
CCC(CC)NC1=C(NC(C)=O)C(=O)c2ccccc2C1=O,> 50,> 50,> 50,> 50,> 50,> 50,> 50,> 50,> 50,> 50,–,–,–,–,–,–,–,–,–,–
CCCCCCNCCc1cnc[nH]1,–,> 100,> 100,> 100,> 100,> 100,> 100,> 100,> 100,> 100,> 100,–,–,–,–,–,–,–,–,–
CN(C)/C=C/C(=CC=[N+](C)C)/C=C/N(C)C,> 100,> 100,> 100,> 100,> 100,> 100,> 100,> 100,> 100,> 100,–,–,–,–,–,–,–,–,–,–
COc1ccc(CC2COc3cc(OC)cc(OC)c3C2=O)cc1 (centres undefined),> 100,> 100,51.5,> 100,> 100,32.7,> 100,–,> 100,> 100,39.9,–,–,–,–,–,–,–,–,–
CC1C2CC(C(S(=O)(=O)O)C2=O)C1(C)C (centres undefined),> 100,> 100,> 100,> 100,> 100,> 100,> 100,> 100,> 100,> 100,–,–,–,–,–,–,–,–,–,–
COC(=O)C1Cc2cc3c(cc2C1=O)CCC3 (centres undefined),> 100,> 100,> 100,–,> 100,> 100,> 100,> 100,> 100,> 100,> 100,–,–,–,–,–,–,–,–,–
CC1(C)[C@@H]2CC[C@]1(C)[C@H](OC(=O)CSC#N)C2,–,> 100,> 100,> 100,> 100,> 100,–,> 100,> 100,> 100,> 100,–,–,–,–,–,–,–,–,–
O=C1NC(=S)N/C1=C\c1cccs1,–,> 100,> 100,–,–,> 100,> 100,> 100,> 100,–,> 100,–,–,–,–,–,–,–,–,–
